This experiment relates to P388 leukemia ip, CD2F1 mice, survival T/C. Kind of experiment: NCI In Vivo Anticancer Drug Screen. Data for tumor model P388 Leukemia (intraperitoneal) in CD2F1 (CDF1) mice. Conditions: endpoint: median survival time, higher = longer survival. In short, it runs like this: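 Mice carrying the transplanted tumor received test compound or vehicle. Survival was recorded in each group, and the value is the treated-group measurement divided by that of the vehicle-treated control group.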

Setting [1] is: dose: 0.5 mg/kg/injection, schedule: Q04DX003 (ip), vehicle: other.
[2] abbreviates: dose: 60.0 mg/kg/injection, schedule: Q01DX005 (ip), vehicle: saline with Tween-80.
Where [3] appears, read: dose: 120.0 mg/kg/injection, schedule: Q01DX005 (ip), vehicle: saline with Tween-80.
[4] abbreviates: dose: 240.0 mg/kg/injection, schedule: Q01DX005 (ip), vehicle: saline with Tween-80.
Setting [5] is: dose: 12.5 mg/kg/injection, schedule: Q01DX009 (ip), vehicle: saline.
The mark [6] stands for this setting: dose: 25.0 mg/kg/injection, schedule: Q01DX009 (ip), vehicle: saline.
[7] abbreviates: dose: 50.0 mg/kg/injection, schedule: Q01DX009 (ip), vehicle: saline.
Where [8] appears, read: dose: 50.0 mg/kg/injection, schedule: Q01DX005 (ip), vehicle: Klucel (hydroxypropylcellulose) (HPC).
Setting [9] is: dose: 100.0 mg/kg/injection, schedule: Q01DX005 (ip), vehicle: Klucel (hydroxypropylcellulose) (HPC).
The mark [10] stands for this setting: dose: 200.0 mg/kg/injection, schedule: Q01DX005 (ip), vehicle: Klucel (hydroxypropylcellulose) (HPC).

Each structure is given as a SMILES string. Values joined by “and” are separate entries in the source; they are usually repeats but may differ in a detail not shown here. Equal values may be shown once. Inconclusive results and toxic doses are left out.

Regarding `CC[C@@]1(O)C(=O)OCc2c1cc1n(c2=O)Cc2cc3cc(O)ccc3nc2-1`, the T/C under setting [1] is 160 % of control and 229 % of control; the T/C (dose: 0.79 mg/kg/injection, schedule: Q04DX003 (ip), vehicle: other) is 165 % of control; the T/C (dose: 1.0 mg/kg/injection, schedule: Q04DX003 (ip), vehicle: other) was 166 % of control and 192 % of control; the T/C (dose: 1.57 mg/kg/injection, schedule: Q04DX003 (ip), vehicle: other) was 199 % of control; the T/C (dose: 2.0 mg/kg/injection, schedule: Q04DX003 (ip), vehicle: other) was 229 % of control; the T/C (dose: 3.13 mg/kg/injection, schedule: Q04DX003 (ip), vehicle: other) was 295 % of control. Moreover, the T/C (dose: 4.0 mg/kg/injection, schedule: Q04DX003 (ip), vehicle: other) is 284 % of control and 314 % of control; the T/C (dose: 8.0 mg/kg/injection, schedule: Q04DX003 (ip), vehicle: other) is 101 % of control.
`COc1ccc(/C=C/C(=O)c2ccccc(=O)c2O)cc1`: the T/C is, setting by setting: (dose: 50.0 mg/kg/injection, schedule: Q01DX001 (ip), vehicle: Klucel (hydroxypropylcellulose) (HPC)) 106 % of control; (dose: 100.0 mg/kg/injection, schedule: Q01DX001 (ip), vehicle: Klucel (hydroxypropylcellulose) (HPC)) 101 % of control; (dose: 200.0 mg/kg/injection, schedule: Q01DX001 (ip), vehicle: Klucel (hydroxypropylcellulose) (HPC)) 105 % of control; (dose: 400.0 mg/kg/injection, schedule: Q01DX001 (ip), vehicle: Klucel (hydroxypropylcellulose) (HPC)) 92 % of control.
With `CCC1(C(=O)c2ccccc2)C(C(=O)OC)=NC(=S)N=C1C(=O)OC`, the T/C is, setting by setting: under setting [2], 99 % of control; under setting [3], 90 % of control; under setting [4], 100 % of control.
On the same counts, the results for `CSc1nnc(CCC(=O)Nc2cc(Cl)ccc2Cl)o1` are 109 % of control, 100 % of control and 97 % of control.
As to `CCn1c(=O)c2[nH]c(Cl)nc2n(CCCl)c1=O`, the T/C (dose: 16.0 mg/kg/injection, schedule: Q01DX009 (ip), vehicle: Klucel (hydroxypropylcellulose) (HPC)) was 102 % of control and 118 % of control; the T/C (dose: 32.0 mg/kg/injection, schedule: Q01DX009 (ip), vehicle: Klucel (hydroxypropylcellulose) (HPC)) was 111 % of control and 117 % of control; the T/C (dose: 64.0 mg/kg/injection, schedule: Q01DX009 (ip), vehicle: Klucel (hydroxypropylcellulose) (HPC)) is 122 % of control; the T/C (dose: 128.0 mg/kg/injection, schedule: Q01DX009 (ip), vehicle: Klucel (hydroxypropylcellulose) (HPC)) is 110 % of control.
Consider `C=C1CCC2C(OC(=O)C2(O)COC(C)=O)C2C(=C)C(OC(C)=O)CC12` (stereo not given), for which the T/C was 106 % of control (dose: 9.38 mg/kg/injection, schedule: Q01DX005 (ip), vehicle: Klucel (hydroxypropylcellulose) (HPC)); 100 % of control (dose: 18.75 mg/kg/injection, schedule: Q01DX005 (ip), vehicle: Klucel (hydroxypropylcellulose) (HPC)); 98 % of control (dose: 37.5 mg/kg/injection, schedule: Q01DX005 (ip), vehicle: Klucel (hydroxypropylcellulose) (HPC)); 100 % of control (dose: 75.0 mg/kg/injection, schedule: Q01DX005 (ip), vehicle: Klucel (hydroxypropylcellulose) (HPC)); 99 % of control (dose: 150.0 mg/kg/injection, schedule: Q01DX005 (ip), vehicle: Klucel (hydroxypropylcellulose) (HPC)).
For `O=N[O-].[Co].[NH2-].[NH2-].[NH2-].[NH2-].[NH2-]`, the T/C runs as follows: under setting [5], 90 % of control; under setting [6], 95 % of control; under setting [7], 95 % of control.
As for `Cc1ccc(S(=O)(=O)NC(=S)Nc2ccccc2)cc1`, the T/C (dose: 100.0 mg/kg/injection, schedule: Q04DX003 (ip), vehicle: saline with Tween-80) is 99 % of control; the T/C (dose: 200.0 mg/kg/injection, schedule: Q04DX003 (ip), vehicle: saline with Tween-80) was 108 % of control; the T/C (dose: 400.0 mg/kg/injection, schedule: Q04DX003 (ip), vehicle: saline with Tween-80) was 100 % of control.
Regarding `CCNC(=O)C(CCO)NC(=O)OCc1ccccc1` (stereo not given), the T/C is, setting by setting: (dose: 12.5 mg/kg/injection, schedule: Q01DX009 (ip), vehicle: distilled water + Tween-80) 118 % of control; (dose: 25.0 mg/kg/injection, schedule: Q01DX009 (ip), vehicle: distilled water + Tween-80) 101 % of control; (dose: 50.0 mg/kg/injection, schedule: Q01DX009 (ip), vehicle: distilled water + Tween-80) 110 % of control.
`COC(=O)C1(C2(C(=O)OC)NC(=S)NC(=O)C2C#N)CCCC1=O` (stereo not given): the T/C by setting is: under setting [2], 108 % of control; under setting [3], 105 % of control; under setting [4], 105 % of control.
In the case of `O=[N+]([O-])c1ccc(C(Nc2nncs2)Nc2nncs2)cc1`, the T/C is 100 % of control under setting [8], 103 % of control under setting [9] and 119 % of control under setting [10].
Take `O=C1NC(=O)C2=C1CCCC2O` (stereo not given): the T/C by setting is: (dose: 6.25 mg/kg/injection, schedule: Q01DX009 (ip), vehicle: saline) 102 % of control; under setting [5], 101 % of control; under setting [6], 110 % of control; under setting [7], 102 % of control; (dose: 100.0 mg/kg/injection, schedule: Q01DX009 (ip), vehicle: saline) 107 % of control; (dose: 200.0 mg/kg/injection, schedule: Q01DX009 (ip), vehicle: saline) 118 % of control.
For the compound `CCOc1c(N=Nc2ccc(Cl)cc2)c(-c2ccccc2)nn1C(=S)S`, the T/C is 97 % of control (dose: 50.0 mg/kg/injection, schedule: Q01DX005 (ip), vehicle: saline with Tween-80); 99 % of control (dose: 100.0 mg/kg/injection, schedule: Q01DX005 (ip), vehicle: saline with Tween-80); 91 % of control (dose: 200.0 mg/kg/injection, schedule: Q01DX005 (ip), vehicle: saline with Tween-80).
As to `N#CCC(O)(/C=C/c1ccccc1)c1ccccc1` (stereo not given), the T/C is, setting by setting: (dose: 100.0 mg/kg/injection, schedule: Q01DX009 (ip), vehicle: saline sonified) 91 % of control; (dose: 200.0 mg/kg/injection, schedule: Q01DX009 (ip), vehicle: saline sonified) 86 % of control; (dose: 400.0 mg/kg/injection, schedule: Q01DX009 (ip), vehicle: saline sonified) 95 % of control.
`COc1cc(C=O)c(C=O)cc1OC`: the T/C (dose: 25.0 mg/kg/injection, schedule: Q04DX003 (ip), vehicle: saline with Tween-80) is 100 % of control.
Turning to `CCC1(O)CC(OC2CC(N(C)C)C(OC3CC4OC5CC(=O)C(C)OC5OC4C(C)O3)C(C)O2)c2c(cc3c(c2O)C(=O)c2c(O)ccc(O)c2C3=O)C1C(=O)OC` (stereo not given), the T/C runs as follows: under setting [1], 123 % of control; (dose: 0.5 mg/kg/injection, schedule: Q04DX003 (ip), vehicle: saline with Tween-80) 112 % of control and 110 % of control and 118 % of control; (dose: 0.5 mg/kg/injection, schedule: Q04DX003 (ip), vehicle: water) 113 % of control; (dose: 0.64 mg/kg/injection, schedule: Q04DX003 (ip), vehicle: water) 109 % of control; (dose: 1.0 mg/kg/injection, schedule: Q04DX003 (ip), vehicle: water) 119 % of control; (dose: 1.08 mg/kg/injection, schedule: Q04DX003 (ip), vehicle: water) 115 % of control. The T/C runs as follows: (dose: 1.8 mg/kg/injection, schedule: Q04DX003 (ip), vehicle: water) 118 % of control; (dose: 1.94 mg/kg/injection, schedule: Q04DX003 (ip), vehicle: water) 118 % of control; (dose: 2.0 mg/kg/injection, schedule: Q04DX003 (ip), vehicle: saline with Tween-80) 170 % of control; (dose: 3.24 mg/kg/injection, schedule: Q04DX003 (ip), vehicle: water) 124 % of control; (dose: 5.0 mg/kg/injection, schedule: Q04DX003 (ip), vehicle: water) 114 % of control.
In the case of `CCNC(=O)c1c(C)nc(-c2ccccc2)nc1Nc1ccc(OCC)cc1`, the T/C was 98 % of control under setting [2], 98 % of control under setting [3] and 103 % of control under setting [4].
`COc1cc(OC)c(NC(=O)N(NC(=O)NNc2ccccc2)c2ccccc2)cc1Cl`: the T/C is, setting by setting: under setting [8], 100 % of control; under setting [9], 100 % of control; under setting [10], 95 % of control.
Regarding `COc1ccc(C(=O)c2[nH]ncc2Nc2ccccc2)cc1`, the T/C is 97 % of control (dose: 60.0 mg/kg/injection, schedule: Q01DX005 (ip), vehicle: Klucel (hydroxypropylcellulose) (HPC)); 117 % of control (dose: 120.0 mg/kg/injection, schedule: Q01DX005 (ip), vehicle: Klucel (hydroxypropylcellulose) (HPC)); 91 % of control (dose: 240.0 mg/kg/injection, schedule: Q01DX005 (ip), vehicle: Klucel (hydroxypropylcellulose) (HPC)).
